Legend:
[1] = Bioaccumulation tests in rats; assay type: in vivo, Sprague Dawley and Fisher Rats; conditions: female rats, oral gavage on five consecutive days, sacrificed after 14 days, tissue analysis by GC-ECD with regard to total dose
Description: (§1) • I. Insecticide Testing Insects: Mosquitoes Species: Aedes aegypti, Anopheles quadramaculatus The mosquitoes were bred under controlled conditions (humidity, temperature and nutrition) at White Sands Research center. Test room temperature: approximately 70 F (average) Test room humidity: between 50% and 70% (average) Procedure: The test compounds were dissolved in HPLC grade acetone at the appropriate concentrations. One ml of the solution was applied with a disposable 1 ml syringe on filter paper (Whatman 541, 9.0 cm diameter). After evaporatin of the acetone, the filter paper was placed in a Petri dish (diameter also about 9.0 cm) with alid. […] The mosquitoes (not less than 5 or more than 20) were transferred in the dish through a hole in the lid. The lid was stopped up with a cotton ball wrapped in filter paper and soaked in sugar water. Two dishes with control insects - the filter paper was treated with 1 ml pure acetone - were observed. Readings were taken 3 to 4 times during the first hour, thereafter every hour. […] "Down" (D) = mosquitoes are disabled to fly, lay on their back or side. "Dead" = mosquitoes are completely moveless (e.g. no movement of body, legs or wints). these criteria can be considered as very strict. • II. Bioaccumulation Tests in Rats Species: Sprague Dawley and Fisher Rats Sex: Female Age/Weight: Young rats (average weight between 130 and 180 grams) Procedure: The animals were housed in stainless steel metabolism cages in a temperature controlled animal room. They were quarantined for at least 6 days before being placed on the study. Three rats were taken for each test compound (see appendix for dose levels). Each animal was dosed on five consecutive days by oral gavage. The test compound was dissolved or suspended in 0.5% carboxy methyl cellulose solution or corn oil (Mazola). After 14 days the rats were sacrificed by CO2. Samples of fat (abdominal) liver, kidneys, brain and muscle (leg) were removed and extracted for analysis. The fat of each rat was analyzed separately with regard to the individual total dose. The other organs of all three rats were combined and analyzed with regard to the total dose being applied to all three rats. The analysis was done by gas chromatography under ECD (electron capture detector) detection.

[2] = system: Mosquitoes: Aedes aegypti, Anopheles quadramaculatus; test: Insecticide testing on filter paper: knock-down and killing effect (Table 5); assay type: in vivo; conditions: for Lowest Concentration With Killing Effect / Lowest Concentration for Knockdown: concentration of acetone solution, 1 ml on filter paper
Description: as §1

[3] = system: Blatella germanica (German cockroach); test: Contact test at 1% concentration; assay type: in vivo
Maize Weevil = test: Contact test at 1% concentration; assay type: in vivo
Grainery Weevil = test: Contact test at 1% concentration; assay type: in vivo
[4] = system: Acheta domestica (Crickets); test: Contact test at 1% concentration; assay type: in vivo
Pediculus humanus (Lice) = test: Contact test at 1% concentration; assay type: in vivo
Aedes aegypti = test: Filter paper test for insecticidal activity against mosquitoes (Table 3); assay type: in vivo; conditions: for 100 % kill: time after which 100% of the mosquitoes were killed
Description: The experimental design of the test for activity against mosquitoes is as follows.
[…] The filter paper was then placed in a petri dish and 10-20 mosquitoes (Aedes aegypti) added. The effect of the chemical on the mosquitoes (flying activity, mortality) was observed and recorded for up to 72 hours. Generally the experiments were in triplicate, the parent cyclodiene and its dechlorinated derivative were tested and compared to the control; the filter paper of the control was treated with acetone only. A total of 9 pairs of chemicals (parent cyclodiene and dechlorinated derivative) and CIC-134 were tested according to the procedure above.

[5] = system: Sitophilus Oryza (Rice Weevil); test: Contact test at 1% concentration; assay type: in vivo
[6] = system: Ctenocephalides felis (Cat fleas); test: Contact test at 1% concentration; assay type: in vivo
[7] = system: Tenebrio molitor (Greater Meal Worm); test: Contact test at 1% concentration; assay type: in vivo
[8] = system: Cimex lectularius (Bed bugs); test: Contact test at 1% concentration; assay type: in vivo
[9] = system: Mosca domestica (House fly); test: Contact test at 1% concentration; assay type: in vivo
[10] = 1% solution in acetone, 1 ml on filter paper, time after which 100% of the mosquitoes were affected (dead, lying down, wobbly, erratic)
[11] = 1% solution in acetone, 1 ml on filter paper

| Compound | Bioaccumulation in Rats [1] | Lowest Concentration With Killing Effect [2] | Lowest Concentration for Knockdown [2] | 100% effect (Aedes aegypti; [10]) | 100 % kill (Aedes aegypti; [11]) | also measured |
| --- | --- | --- | --- | --- | --- | --- |
| ClC12C=CC(Cl)(CC1)C2(Cl)Cl [CIC-142, 1,4,7,7-tetrachloronorbon-2-ene] | 1.24% | 0.3% | 0.75% | 0.25 h | 3 h | down ([2]; 0.75%, after 4 minutes): 37%; insecticidal effect in contact test [3]: effective insecticides; insecticidal effect in contact test (Maize Weevil): effective insecticides; insecticidal effect in contact test (Grainery Weevil): no effect; insecticidal effect in contact test [4]: only mildly effective; insecticidal effect in contact test (Pediculus humanus (Lice)): effective insecticides; insecticidal effect in contact test [5]: effective insecticides; insecticidal effect in contact test [6]: effective insecticides; insecticidal effect in contact test [7]: effective insecticides; insecticidal effect in contact test [8]: effective insecticides; insecticidal effect in contact test [9]: effective insecticides |
| 1,4,7,7-Tetrachloro-bicyclo- [2.2.1]-heptane-poxide (less) [CIC-149] | – | 0.063% | 0.5% | 0.33 h | 9 h | dead ([2]; 0.063%, after 6 hours): 67%; down ([2]; 0.5%, after 10 minutes): 36%; Knock-down, remark in words ([2]; in vivo): Not very fast knock-down |
| 1,2-endo,3-endo,4,7-syn-pentachloronorbornane [CIC-144] | 0.01% | 0.06% | 0.06% | 0.08 h | 23 h | dead ([2]; 0.06%, after 22 hours): 79%; down ([2]; 0.06%, time not given): 55% |
| Cl[C@@H]1[C@H](Cl)[C@]2(Cl)CC[C@@]1(Cl)C2 [CIC-145, 1,2-endo,3-endo,4-tetrachloronorbornane] | >> 0.01% | 0.04% | 0.08% | 0.08 h | 3 h | mortality at 0.04 % ([2]; 0.04%, after 5 hours, read-out: dead): 62%; down ([2]; 0.08%, after 5 minutes): 63%; insecticidal effect in contact test [3]: effective insecticides; insecticidal effect in contact test (Maize Weevil): effective insecticides; insecticidal effect in contact test (Grainery Weevil): effective insecticides; insecticidal effect in contact test [4]: effective insecticides; insecticidal effect in contact test (Pediculus humanus (Lice)): effective insecticides; insecticidal effect in contact test [5]: effective insecticides; insecticidal effect in contact test [6]: effective insecticides; insecticidal effect in contact test [7]: effective insecticides; insecticidal effect in contact test [8]: effective insecticides; insecticidal effect in contact test [9]: effective insecticides |
| ClC1=CC2(Cl)CCC1(Cl)C2(Cl)Cl (stereo not shown) [CIC-147, 1,2,4,7,7-pentachloronorborn-2-ene] | 1.04% | 0.125% | 0.125% | 0.08 h | 9 h | down ([2]; 0.125%, 10 minutes): 63%; mortality at 0.125 % ([2]; 1.5 h, read-out: dead): 50% |
| Cl[C@@H]1C[C@]2(Cl)CC[C@@]1(Cl)C2(Cl)Cl [CIC-141, 1,2-endo,4,7,7-pentachloronorbornane] | – | 0.125% | 0.5% | 0.25 h | 10 h | down ([2]; 0.5%, 5 minutes): 38% |
| 1,2,3,4,5-endo,6-endo,7-syn-heptachoronorborn-2-ene [CIC-143] | – | – | – | 2 h | 23 h | – |
| 1,4,7,7-Tetrachloro-bicyclo [2.2.1]-heptane epoxide [CIC-150] | – | 0.5% | – | 4 h | 23 h | dead ([2]; 0.5%, after 7 hours): 27% |
| Cl[C@H]1[C@H](Cl)[C@@]2(Cl)CC[C@]1(Cl)C2(Cl)Cl [CIC-146, 1,2-exo,3-endo,4,7,7-hexachloronorbornane] | – | > 1% | – | 3 h | 24 h | – |
| 1,2-endo,3-endo,4,7-anti-pentachlronorbornane [CIC-148] | ~1.30% (estimate value) | 0.015% | 0.06% | 0.08 h | 6 h | dead ([2]; 0.015%, after 5 hours): 60%; down ([2]; 0.06%, time not given): 80% |
| CC1CC2(Cl)CCC1(Cl)C2(Cl)Cl (stereo not shown) [CIC-151, 1,4,7,7-tetrachloro-2-methyl-norbornane] | 0.01% | 0.50% | 0.5% | – | – | down ([2]; 0.5%, time not given): 73%; mortality at 0.5 % ([2]; read-out: dead): 73%; 100% effect (Aedes aegypti; 0.5% solution in acetone on filter paper, time after which 100% of the mosquitoes were affected): 0.16 h; 100 % kill (Aedes aegypti; 0.5% solution in acetone on filter paper): 12 h |

— patent publication EP0441876B1, “NON-BIOA[…]” (COULSTON INTERNATIONAL CORPORATION, priority 1988, dated 1990)
